Data on one compound can be found in patent publication EP0888322B1, “ELECTROPHILIC KETONES FOR THE TREATMENT OF HERPESVIRUS INFECTIONS” (G.D. SEARLE & CO., priority 1996, dated 1997).

Where only a bound is given, the exact number is not on record here.

For one data set, the system named is HCMV. The experiment in a line: HCMV antiviral assay, format (RC256 or ELISA) not given. It counts as cell-based. The settings on record: Human betaherpesvirus 5, read-out: Antiviral Activity EC50. The text has this: (§1) These complimentary assays tested the ability of a compound to inhibit the production of new virus and the toxicity of the compound to the host cells. It was important that both assays be performed simultaneously in order to compare the results directly since, toxicity may indirectly reduce viral yield.
Viral yield was estimated by measuring the amount of a viral antigen produced 4 days post infection with a monoclonal antibody to an abundant "immediate early" viral protein. An enzyme-linked (horseradish peroxidase) secondary antibody specific to the primary (mouse) antibody was used to measure the amount of viral antigen. Test compounds were diluted to 2-times the desired final concentration in DMEM + 5% FBS. One hundred microliters of this solution was placed in each well of a 96-well plate. This was performed once for the antiviral 96-well plate and again for a cytotoxicity plate. […]
The following was performed on the antiviral plate only. […] The reaction was stopped by adding 100 µL of phosphoric acid and the OD at 450 nm recorded. […] Antiviral activity was calculated by comparing the amount of viral antigen produced in drug treated wells with that produced in wells absent of drug. […]
In this assay, HCMV replication was monitored by the production of E. coli beta-galactosidase by the engineered virus RC256 [Spaete and Mocarski, Proc.Nat.Acad.Sci., 84, 7213 (1987)]. […]
In general terms: ELISA stands for enzyme-linked immunosorbent assay.

Data set [1] addresses T1, Bovine pancreas α-chymotrypsin (Bos taurus, UniProt P00766, DEL14-15/DEL147-148).
T1 construct: Bovine pancreas α-chymotrypsin (type II, Sigma); purchased Sigma type II; host or cells: bovine pancreas
The experiment in a line: Chymotrypsin assay. It counts as biochemical. The settings on record: @ 33 µM; read-out: Chymotrypsin % @ Conc. The method, then: The chymotrypsin assay was modified from the method of Delmar et al [Anal. Biochem., 99, 316-320 (1979)]. Bovine pancreas α-chymotrypsin (type II, Sigma) was dissolved in 0.001 N HCl at 1 mg/ml and further diluted 1/600 in assay buffer (0.1 M Tris, pH 7.8, containing 0.1 M CaCl2) before use. 20 µl of test compound in DMSO (or DMSO alone), 100 µl of assay buffer and 30 µl of enzyme were added to 96 well plates, mixed and pre-incubated for 30 minutes at ambient temperature. Reaction was initiated by addition of 50 µl of 0.2 mM N-succinyl-Ala-Ala-Pro-Phe-p-nitroanilide (Sigma; 2 mM in DMSO diluted 1/10 in assay buffer before use). The increase in absorbance at 405 nm was monitored for 10 minutes with a Biotek EL340 plate reader.

Data set [2] deals with T2, Human leukocyte elastase (HLE) (Homo sapiens, UniProt P08246).
T2 construct: gift of R. Senior, Washington University
T2 sequence (P08246 30-267): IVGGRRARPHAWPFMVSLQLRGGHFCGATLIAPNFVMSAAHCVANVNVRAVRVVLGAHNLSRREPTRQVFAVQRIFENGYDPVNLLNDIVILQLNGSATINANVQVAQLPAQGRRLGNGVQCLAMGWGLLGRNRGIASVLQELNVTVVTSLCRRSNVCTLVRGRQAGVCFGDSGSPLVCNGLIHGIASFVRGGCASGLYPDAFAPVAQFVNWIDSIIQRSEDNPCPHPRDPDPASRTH
Description: Human leukocyte elastase assay. It counts as biochemical. The settings on record: @ 24 µM; read-out: HLE % @ Conc.
Description: Human leukocyte elastase (HLE) (gift of R. Senior, Washington University) was dissolved in saline at 1 mg/ml and further diluted 1/20 in assay buffer (0.2 M Tris, pH 8.0) before use. 10 µl of test compound in DMSO (or DMSO alone), 100 µl of assay buffer and 50 µl of enzyme were added to 96 well plates, mixed and pre-incubated for 30 minutes at ambient temperature. Reaction was initiated by addition of 40 µl of 2.5 mM methoxysuccinyl-Ala-Ala-Pro-Val-p-nitroanilide (Sigma; 25 mM in DMSO diluted 1/10 in assay buffer before use). The increase in absorbance at 405 nm was monitored for 10 minutes with a Biotek EL340 plate reader.

Another data set can be described thus: in vitro. It counts as cell-based. The settings on record: human, human foreskin fibroblasts.
From the text: as §1
Viral yield was estimated by measuring the amount of a viral antigen produced 4 days post infection with a monoclonal antibody to an abundant "immediate early" viral protein. An enzyme-linked (horseradish peroxidase) secondary antibody specific to the primary (mouse) antibody was used to measure the amount of viral antigen. Test compounds were diluted to 2-times the desired final concentration in DMEM + 5% FBS. One hundred microliters of this solution was placed in each well of a 96-well plate. This was performed once for the antiviral 96-well plate and again for a cytotoxicity plate. Two controls were also included for both plates; a no drug control and a no virus control. Ganciclovir was routinely tested in antiviral and cytotoxicity plates as a reference standard because it has known antiviral activity for HCMV. All cells were prepared by harvesting human foreskin fibroblasts, with trypsin and re-suspending at a concentration of 5 X 10^5 cells per ml in DMEM. Infected cells were prepared by infecting these with HCMV (strain AD169) at a multiplicity of infection = 0.2. One hundred microliters of uninfected cells (5 x 10^4 cells) were added to the appropriate wells of the cytotoxicity plate. In a similar manner 100 µl of infected cells (5 x 10^4 cells) were added to the appropriate wells of the antiviral plate. Additionally, uninfected cells not treated with test compound were included as controls on the antiviral plate. Plates were incubated for 96 hours at 37°C in 5% CO2 atmosphere and processed to measure the amount of viral antigen and toxicity.
In this assay, HCMV replication was monitored by the production of E. coli beta-galactosidase by the engineered virus RC256 [Spaete and Mocarski, Proc.Nat.Acad.Sci., 84, 7213 (1987)]. One antiviral assay and one cytotoxicity assay were done for each compound. Dilutions of test compounds and infection of cells in a 96-well plate was essentially as described above for the HCMV ELISA except for the following. Human foreskin fibroblasts at 3.5 x 10^5 cells per milliliter were infected in solution with RC256 at 0.05 pfu per cell. Compounds and cells were incubated 3 days and processed at […]. For the beta galactosidase detection, the supernatant was aspirated from the antiviral assay plates and 50 µl Reporter Lysis Buffer (Promega, diluted to 1X with water) was added per well. The plates were incubated at room temperature at least 30 minutes and plates were frozen at -20 °C at this point for later processing. 50 µl of 2X assay buffer [120 mM Na2HPO4, 80 mM NaH2PO4, 2 mM MgCl2, 100 mM 2-mercaptoethanol, 4.4 mM ONPG (Sigma)] was added per well and incubated at room temperature 30 to 45 minutes. The reaction was stopped with 100 µl 1M CAPS buffer, pH = 11.0, per well and the optical density was read at 410 nanometers. Ganciclovir was used as a positive control and the EC50 was determined as described above for the HCMV ELISA. Results (EC50/TD50) are included in Table 1.

As a reminder, the EC50 is the concentration that produces a half-maximal response. Usually CC50 stands for the concentration at which the toxic effect on the cells reaches its halfway point. In the case of `O=C(Nc1ccc(I)cc1C(=O)C(F)(F)F)c1ccco1` [Example 13, N-[4-iodo-2-(2,2,2-trifluoro-1-oxoethyl)phenyl]furan-2-carboxamide], the EC50 in the data set with HCMV came to 28 µM. Further, in data set [1], the inhibition at 33 µM was determined as 39%. Besides, the inhibition at 24 µM in data set [2] was 50%. Also, the CC50 in the data set “in vitro” is over 100 µM.
